From patent US6443945B1, “Laser assisted pharmaceutical delivery and fluid removal” (Transmedica International, Inc., priority 1993, dated 2002)

Experiments:
[1] = Topical alprostadil patch on laser-perforated penis skin; assay type: in vivo, human; details: three 2 mm spots, 5 J/cm^2; patch held 45 minutes
From the text: The duration of the pulse was approximately 300 μs. The spot size was approximately 2 mm, with an energy fluence of 5 J/cm^2. Single pulses were used. Three 2 mm diameter spots were created on a flaccid penis. Subsequent to ablation a pharmaceutical preparation of alprostadil (Caverject from Pharmacia & Upjohn, Kalamazoo, Mich.) was applied to a small patch consisting of tissue paper. The patch was applied to the multiple perforated areas of the skin on the then flaccid penis and held there with adhesive tape for 45 minutes. After approximately 35 minutes, the patient obtained an erection that was sustained for more than 1 hour.

[2] = Permeation of radiolabelled corticosterone or DNA through laser-irradiated human skin in diffusion cells; assay type: in vitro ADME; details: 2 mm spot, donor removed after 15 minutes
Protocol: Pieces of human skin were placed in diffusion cells and irradiated with a single pulse of radiant energy produced by an Er:YAG laser. The spot size was 2 mm and the energy of the pulse was measured with a calibrated energy meter. After irradiation, the diffusion cells were placed in a 37 degrees Celsius heating block. Phosphate buffered saline was added to the receptor chamber below the skin and a small stir bar was inserted in the receptor chamber to keep the fluid continually mixed. Control skin was left unirradiated. Small volumes of radiolabelled compounds (either corticosterone or DNA) were then added to the donor chamber and left for 15 minutes before being removed (in the case of corticosterone) or were left for the entire duration of the experiment (in the case of the DNA). Samples were then taken from the receptor chamber at various times after application of the test compound and measured in a scintillation or gamma counter.

[3] = In vivo blanching assay (chromameter skin redness) on laser-irradiated forearm spots; design: species or system human
From the text: In the case of the blanching assay, baseline skin color (redness) measurements were then taken of each spot using a Minolta CR-300 Chromameter (Minolta Inc., NJ). The Er:YAG laser was then used to ablate six 2 mm spots on one forearm, at energies of 40, 80 and 120 mJ. A spot (negative calorimeter control) directly adjacent to the laser irradiated spots remained untouched. Subsequently, a thin film of 1% hydrocortisone ointment was applied to six of the lased spots on the treatment arm. One untouched spot on the contralateral arm was administered a thin layer of Diprolene (β-methasone), which is a strong steroid that can permeate the intact stratum corneum in an amount sufficient to cause measurable skin blanching. An occlusive patch, consisting of simple plastic wrap, was fixed with gauze and dermatological tape over all sites on both arms and left in place for two hours, after which the administered steroids were gently removed with cotton swabs. […] Finally, the skin was clinically assessed for evidence of irritation at the 26 hour evaluation.

[4] = In vitro permeation study of tritiated water through lased human skin; assay type: in vitro ADME; details: 50 mJ (1.6 J/cm^2) to 1250 mJ (40 J/cm^2); increase at low fluences up to about 5 J/cm^2, then more-or-less constant
From the text: Histology studies on rat and human skin, irradiated either in vivo or in vitro, show little or no evidence of ablation when Er:YAG laser pulse energies less than about 100-200 mJ are used. (See, e.g., FIG. 25).

[5] = Permeation of radiolabelled drugs through Er:YAG laser-irradiated human skin in Franz diffusion cells; assay type: in vitro ADME
From the text: The output of the Er:YAG laser was passed through an aperture to define it's diameter as 2 mm. Human skin, purchased from a skin bank, was positioned in Franz diffusion cells. The receptor chamber of the cell was filled with 0.9% buffered saline. A single pulse, of measured energy, was used to irradiate the skin in separate diffusion cells. Control skin was left unirradiated. […] In the case of γ-interferon, a 285 mJ pulse was used, and multiple samples were irradiated. […] In the case of cortisone, either 77 mJ or 117 mJ was used. After irradiation, a stirring magnet was place in the receptor chamber of the diffusion cells and the cells were placed in a heating block held at 37° C. […] The donor was left on the skin for the duration of the experiment. At various times post-drug-application, samples were taken from the receptor chamber and the amount of drug present was assayed with either a gamma-counter, or a liquid scintillation counter.

CCN(CC)CC(=O)Nc1c(C)cccc1C [Lidocaine, lidocaine]
pain on insertion of 26G-0.5 needle into lased site (30% liquid lidocaine solution applied topically for two minutes after 60 mJ pulse): no observable pain | pain on full insertion of 22G-1 needle into lased site (30% liquid lidocaine solution, 6-minute anesthetic treatment after 60 mJ pulse): no observable pain

CCCCC[C@H](O)/C=C/[C@H]1[C@H](O)CC(=O)[C@@H]1CCCCCCC(=O)O [alprostadil]
duration of erection [1]: more than 1 hour | time to erection [1]: approximately 35 minutes

C[C@]12C[C@H](O)[C@H]3[C@@H](CCC4=CC(=O)CC[C@@]43C)[C@@H]1CC[C@@H]2C(=O)CO [corticosterone]
permeation through irradiated skin versus unirradiated controls ([2]; 77 mJ/pulse (sub-ablative)): enhanced permeation | permeation through irradiated skin versus unirradiated controls ([2]; 117 mJ pulse): enhanced permeation

C[C@]12CCC(=O)C=C1CC[C@@H]1[C@@H]2[C@@H](O)C[C@@]2(C)[C@H]1CC[C@]2(O)C(=O)CO [hydrocortisone]
erythema (reddening) of skin, chromameter measurements ([3]; 1% hydrocortisone ointment on spots lased at 40, 80, 120 mJ, occluded two hours, 2-26 hours post-irradiation): reddening was less than that seen in the control spots | clinical assessment for irritation ([3]; 26 hour evaluation): no problems were seen

[3H]O[3H] [tritiated water]
permeation through lased human skin [4]: increase in permeation

B1: γ-Interferon: radiolabelled gamma-interferon diluted in buffered saline (protein, UniProt P01579 24-161, looked up)
Interferon gamma: QDPYVKEAENLKKYFNAGHSDVADNGTLFLGILKNWKEESDRKIMQSQIVSFYFKLFKNFKDDQSIQKSVETIKEDMNVKFFNSNKKKRDDFEKLTNYSVTDLNVQRKAIHELIQVMAELSPAAKTGKRKRSQMLFRG
modifications: radiolabel
notes: radiolabelled gamma-interferon diluted in buffered saline
Permeability Constant, kp [5]: 9.74 +/− 2.05 ×10^−3 cm/hr
